# Test results: the supplement of paper PMC10307832
# Assays:
# Assay in all cases: relative viability (nuclei count vs DMSO), 5 days (fraction); higher = more cells survive
# [1] = compound: CCN1CCN(c2ccc(Nc3cc(N(C)C(=O)Nc4c(Cl)c(OC)cc(OC)c4Cl)ncn3)cc2)CC1 [BGJ398] + Cc1nc(NC(=O)N2CCC[C@H]2C(N)=O)sc1-c1ccnc(C(C)(C)C(F)(F)F)c1 [Alpelisib] (partner 2 µM)
# Summary of the method: (§1)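 Lung cancer cell lines in 1536-well plates were dosed by pin tool the day after seeding, either with one drug alone or with a fixed anchor-drug dose plus five library-drug doses (not always all listed) in √10 steps. After 5 days, cells were fixed and their nuclei stained in one step (final 0.05% Triton X-100, 1% formaldehyde, 1 ug/ml Hoechst), then counted on 4× images. Relative viability is the nuclei count in treated wells divided by that in vehicle wells. Values are medians of duplicate plates.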
# [2] = compound: C1=CC2=NC=CN=C2C=C1/C=C/3\C(=O)NC(=O)S3 + COc1cccc2cc(-c3nc([C@H]4CC[C@H](C(=O)O)CC4)n4ncnc(N)c34)[nH]c12 [OSI-027] (partner 0.5 µM)
# Summary of the method: as §1
# [3] = compound: C1=CC2=NC=CN=C2C=C1/C=C/3\C(=O)NC(=O)S3 + Cc1cc(Nc2cc(N3CCN(C)CC3)nc(Sc3ccc(NC(=O)C4CC4)cc3)n2)n[nH]1 [Tozasertib] (partner 0.1 µM)
# Summary of the method: as §1
# [4] = compound: C1=CC2=NC=CN=C2C=C1/C=C/3\C(=O)NC(=O)S3 + NC(=O)Nc1cc(-c2cccc(F)c2)sc1C(=O)N[C@H]1CCCNC1 [AZD7762] (partner 0.2 µM)
# Summary of the method: as §1
Cell Line,relative viability ([1]; first compound 0.01 µM),relative viability ([1]; first compound 0.03162 µM),relative viability ([1]; first compound 0.1 µM),relative viability ([1]; first compound 0.3162 µM),relative viability ([1]; first compound 1 µM),relative viability ([2]; first compound 0.02 µM),relative viability ([2]; first compound 0.06325 µM),relative viability ([2]; first compound 0.2 µM),relative viability ([2]; first compound 0.6325 µM),relative viability ([2]; first compound 2 µM),relative viability ([3]; first compound 0.02 µM),relative viability ([3]; first compound 0.06325 µM),relative viability ([3]; first compound 0.2 µM),relative viability ([3]; first compound 0.6325 µM),relative viability ([3]; first compound 2 µM),relative viability ([4]; first compound 0.02 µM),relative viability ([4]; first compound 0.2 µM),relative viability ([4]; first compound 0.6325 µM),relative viability ([4]; first compound 2 µM),relative viability ([4]; first compound 0.06325 µM)
NCI-H1734,0.678,0.654,0.725,0.676,0.742,0.697,0.487,0.665,0.522,0.324,0.256,0.262,0.317,0.248,0.278,0.579,0.586,0.469,0.444,
HOP-62,0.721,1.02,0.824,0.861,0.984,0.742,1.02,0.833,0.827,0.607,0.352,0.354,0.34,0.328,0.363,0.847,0.516,0.434,0.685,0.91
LOU-NH91,0.727,0.531,0.717,0.491,0.697,0.726,0.767,0.673,0.681,0.464,0.619,0.739,0.634,0.63,0.588,0.74,0.797,0.733,0.55,0.755
PC-14,0.824,0.845,0.98,0.958,0.938,0.771,0.67,0.815,0.804,0.692,0.579,0.754,0.571,0.546,0.572,0.421,0.423,0.322,0.299,0.272
NCI-H1437,0.96,0.989,0.955,0.991,0.972,0.941,0.995,0.922,0.784,0.197,0.404,0.388,0.388,0.418,0.323,1.18,1.09,1.09,0.609,1.11
NCI-H460,0.47,0.594,0.574,0.566,0.422,0.727,1,0.781,0.525,0.394,0.411,0.262,0.441,0.392,0.395,0.581,0.576,0.621,0.456,0.438
NCI-H1666,1.01,1.08,1.01,0.922,0.909,0.873,0.825,0.84,0.812,0.459,0.591,0.617,0.575,0.674,0.603,0.748,0.865,0.827,0.608,0.731
NCI-H1651,1.04,0.952,0.961,0.918,0.939,0.711,0.723,0.794,0.658,0.527,0.827,0.62,0.664,0.608,0.61,0.472,0.508,0.471,0.417,0.289
